Test results as given in patent US20220389061A1, “IMMUNOMODULATORS” (priority 2019, published 2022).
Read-outs that look alike come from different tables or passages of the source. Starred links: 1 amine or outer side, 2 acyl side, 3 side chain; linkers in the order of their positions; H or OH if unused. Positions of bridges follow the written chain, without caps; N, C: chain ends. Non-standard residues stand in square brackets, D forms with d. Residues, ends and D or L forms follow the SMILES beside them. Groups on a side chain read outwards from the residue. *: point of attachment. Trp(1-CH2CO2Me) = COC(=O)Cn1cc(C[C@H](N)C(=O)O)c2ccccc21; Trp(1-CH2COOH) = N[C@@H](Cc1cn(CC(=O)O)c2ccccc12)C(=O)O; Benzoyl(4-F,3-CF3) = O=C(c1ccc(F)c(C(F)(F)F)c1)*; NH(3,5-Cl2-phenyl) = Clc1cc(Cl)cc(N*)c1; X79 = CCn1c2ccccc2c2cc(NC(=S)*)ccc21; NH(1-naphthyl) = c1ccc2c(N*)cccc2c1; X1 = S=C(Nc1ccc2c(c1)Cc1ccccc1-2)*; X38 = N#Cc1c[nH]c2c(NC(=S)*)cccc12; Pyrazinecarbonyl = O=C(c1cnccn1)*; X49 = N#Cc1ccccc1NC(=N)c1ccccc1N*; Hyp = O=C(O)[C@@H]1C[C@@H](O)CN1; NMeNle = CCCC[C@H](NC)C(=O)O; X52 = c1ccc2c(N*)c[nH]c2c1; X59 = S=C(Nc1ccc2nsnc2c1)*; NMeA = CN[C@@H](C)C(=O)O; Dab = NCC[C@H](N)C(=O)O; Dap = NC[C@H](N)C(=O)O; CO = O=C([*:1])[*:2]

Target: T1, PD-1/PD-L1 (Homo sapiens, UniProt Q9NZQ7)
T1 construct: TVMV protease site linker (C); made in house; host or cells: HEK293T cells
T1 sequence (Q9NZQ7 18-239): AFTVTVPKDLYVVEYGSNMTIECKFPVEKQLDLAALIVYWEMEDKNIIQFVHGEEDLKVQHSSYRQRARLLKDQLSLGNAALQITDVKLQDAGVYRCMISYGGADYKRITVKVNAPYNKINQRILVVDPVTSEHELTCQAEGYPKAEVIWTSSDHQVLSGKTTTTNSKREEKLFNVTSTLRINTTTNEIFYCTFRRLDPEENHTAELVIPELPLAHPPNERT
Assay: PD-1/PD-L1 Homogenous Time-Resolved Fluorescence (HTRF) binding assay
Text: The ability of the compounds of formula (I) to bind to PD-L1 was investigated using a PD-1/PD-L1 Homogenous Time-Resolved Fluorescence (HTRF) binding assay.
The interaction of PD-1 and PD-L1 can be assessed using soluble, purified preparations of the extracellular domains of the two proteins. The PD-1 and PD-L1 protein extracellular domains were expressed as fusion proteins with detection tags, for PD-1, the tag was the Fc portion of Immunoglobulin (PD-1-Ig) and for PD-L1 it was the 6 histidine motif (PD-L1-His). All binding studies were performed in an HTRF assay buffer consisting of dPBS supplemented with 0.1% […] bovine serum albumin and 0.05% (v/v) Tween-20. For the h/PD-L1-His binding assay, inhibitors were pre-incubated with PD-L1-His (10 nM final) for 15 m in 4 μl of assay buffer, followed by addition of PD-1-Ig (20 nM final) in 1 μl of assay buffer and further incubation for 15 m. HTRF detection was achieved using europium crypate-labeled anti-Ig (1 nM final) and allophycocyanin (APC) labeled anti-His (20 nM final). Antibodies were diluted in HTRF detection buffer and 5 μl was dispensed on top of the binding reaction. […] Additional binding assays were established between the human proteins PD-1-Ig/PD-L2-His (20 & 5 nM, respectively) and CD80-His/PD-L1-Ig (100 & 10 nM, respectively). […]

[1] = PD-L1-His 10 nM pre-incubated with inhibitor, PD-1-Ig 20 nM, read-out: HTRF IC50

SMILES | IC50 [1] [nM] | IC50 [nM]
CCCC[C@H]1C(=O)N(C)[C@@H](CCCC)C(=O)N[C@@H](CC(C)C)C(=O)N[C@H](C(=O)NCC(N)=O)CSCC(=O)N[C@@H](Cc2ccc(O)cc2)C(=O)N(C)[C@@H](C)C(=O)N[C@@H](CC(N)=O)C(=O)N2CCC[C@H]2C(=O)N[C@@H](CNC(=S)Nc2ccc3nsnc3c2)C(=O)N[C@@H](CC(C)C)C(=O)N2C[C@H](O)C[C@H]2C(=O)N[C@@H](Cc2c[nH]c3ccccc23)C(=O)N[C@@H](CCNC(=S)Nc2ccc3nsnc3c2)C(=O)N[C@@H](Cc2cn(CC(=O)OC)c3ccccc23)C(=O)N1C [Example 3056] ({CH2CO}-Y[NMeA]NP[Dap](X59)L[Hyp]W[Dab](X59)[Trp(1-CH2CO2Me)][NMeNle][NMeNle]LCG-NH2; thioether N-14) | 5.6 | –
CCCC[C@H]1C(=O)N(C)[C@@H](CCCC)C(=O)N[C@@H](CC(C)C)C(=O)N[C@H](C(=O)NCC(N)=O)CSCC(=O)N[C@@H](Cc2ccc(O)cc2)C(=O)N(C)[C@@H](C)C(=O)N[C@@H](CC(N)=O)C(=O)N2CCC[C@H]2C(=O)N[C@@H](CNC(=S)Nc2ccc3c(c2)c2ccccc2n3CC)C(=O)N[C@@H](CC(C)C)C(=O)N2C[C@H](O)C[C@H]2C(=O)N[C@@H](Cc2c[nH]c3ccccc23)C(=O)N[C@@H](CCNC(=S)Nc2ccc3c(c2)c2ccccc2n3CC)C(=O)N[C@@H](Cc2cn(CC(=O)O)c3ccccc23)C(=O)N1C [Example 2013] ({CH2CO}-Y[NMeA]NP[Dap](X79)L[Hyp]W[Dab](X79)[Trp(1-CH2COOH)][NMeNle][NMeNle]LCG-NH2; thioether N-14) | 8.1 | –
CCCC[C@H]1C(=O)N(C)[C@@H](CCCC)C(=O)N[C@@H](CC(C)C)C(=O)N[C@H](C(=O)NCC(N)=O)CSCC(=O)N[C@@H](Cc2ccc(O)cc2)C(=O)N(C)[C@@H](C)C(=O)N[C@@H](CC(N)=O)C(=O)N2CCC[C@H]2C(=O)N[C@@H](CNC(=O)Nc2cc(Cl)cc(Cl)c2)C(=O)N[C@@H](CC(C)C)C(=O)N2C[C@H](O)C[C@H]2C(=O)N[C@@H](Cc2c[nH]c3ccccc23)C(=O)N[C@@H](CCN)C(=O)N[C@@H](Cc2cn(CC(=O)O)c3ccccc23)C(=O)N1C [Example 1068] ({CH2CO}-Y[NMeA]NP[Dap]([CO-NH(3,5-Cl2-phenyl)])L[Hyp]W[Dab][Trp(1-CH2COOH)][NMeNle][NMeNle]LCG-NH2; thioether N-14) | – | 4.3
CCCC[C@H]1C(=O)N(C)[C@@H](CCCC)C(=O)N[C@@H](CC(C)C)C(=O)N[C@H](C(=O)NCC(N)=O)CSCC(=O)N[C@@H](Cc2ccc(O)cc2)C(=O)N(C)[C@@H](C)C(=O)N[C@@H](CC(N)=O)C(=O)N2CCC[C@H]2C(=O)N[C@@H](CNC(=O)Nc2cccc3ccccc23)C(=O)N[C@@H](CC(C)C)C(=O)N2C[C@H](O)C[C@H]2C(=O)N[C@@H](Cc2c[nH]c3ccccc23)C(=O)N[C@@H](CCNC(=O)Nc2cccc3ccccc23)C(=O)N[C@@H](Cc2cn(CC(=O)O)c3ccccc23)C(=O)N1C [Example 3005] ({CH2CO}-Y[NMeA]NP[Dap]([CO-NH(1-naphthyl)])L[Hyp]W[Dab]([CO-NH(1-naphthyl)])[Trp(1-CH2COOH)][NMeNle][NMeNle]LCG-NH2; thioether N-14) | – | 3.2

More lines, main results first:

IC50 [1] [nM] | SMILES | IC50 [nM]
0.3 | CCCC[C@H]1C(=O)N(C)[C@@H](CCCC)C(=O)N[C@@H](CC(C)C)C(=O)N[C@H](C(=O)NCC(N)=O)CSCC(=O)N[C@@H](Cc2ccc(O)cc2)C(=O)N(C)[C@@H](C)C(=O)N[C@@H](CC(N)=O)C(=O)N2CCC[C@H]2C(=O)N[C@@H](CNC(=O)Nc2c[nH]c3ccccc23)C(=O)N[C@@H](CC(C)C)C(=O)N2C[C@H](O)C[C@H]2C(=O)N[C@@H](Cc2c[nH]c3ccccc23)C(=O)N[C@@H](CCN)C(=O)N[C@@H](Cc2cn(CC(=O)O)c3ccccc23)C(=O)N1C [Example 3041] ({CH2CO}-Y[NMeA]NP[Dap]([CO-X52])L[Hyp]W[Dab][Trp(1-CH2COOH)][NMeNle][NMeNle]LCG-NH2; thioether N-14) | –
3.5 | CCCC[C@H]1C(=O)N(C)[C@@H](CCCC)C(=O)N[C@@H](CC(C)C)C(=O)N[C@H](C(=O)NCC(N)=O)CSCC(=O)N[C@@H](Cc2ccc(O)cc2)C(=O)N(C)[C@@H](C)C(=O)N[C@@H](CC(N)=O)C(=O)N2CCC[C@H]2C(=O)N[C@@H](CNC(=O)c2cnccn2)C(=O)N[C@@H](CC(C)C)C(=O)N2C[C@H](O)C[C@H]2C(=O)N[C@@H](Cc2c[nH]c3ccccc23)C(=O)N[C@@H](CCNC(=O)c2cnccn2)C(=O)N[C@@H](Cc2cn(CC(=O)OC)c3ccccc23)C(=O)N1C [Example 1002] ({CH2CO}-Y[NMeA]NP[Dap](Pyrazinecarbonyl)L[Hyp]W[Dab](Pyrazinecarbonyl)[Trp(1-CH2CO2Me)][NMeNle][NMeNle]LCG-NH2; thioether N-14) | –
5.2 | CCCC[C@H]1C(=O)N(C)[C@@H](CCCC)C(=O)N[C@@H](CC(C)C)C(=O)N[C@H](C(=O)NCC(N)=O)CSCC(=O)N[C@@H](Cc2ccc(O)cc2)C(=O)N(C)[C@@H](C)C(=O)N[C@@H](CC(N)=O)C(=O)N2CCC[C@H]2C(=O)N[C@@H](CNC(=S)Nc2cccc3c(C#N)c[nH]c23)C(=O)N[C@@H](CC(C)C)C(=O)N2C[C@H](O)C[C@H]2C(=O)N[C@@H](Cc2c[nH]c3ccccc23)C(=O)N[C@@H](CCN)C(=O)N[C@@H](Cc2cn(CC(=O)O)c3ccccc23)C(=O)N1C [Example 3067] ({CH2CO}-Y[NMeA]NP[Dap](X38)L[Hyp]W[Dab][Trp(1-CH2COOH)][NMeNle][NMeNle]LCG-NH2; thioether N-14) | –
5.7 | CCCC[C@H]1C(=O)N(C)[C@@H](CCCC)C(=O)N[C@@H](CC(C)C)C(=O)N[C@H](C(=O)NCC(N)=O)CSCC(=O)N[C@@H](Cc2ccc(O)cc2)C(=O)N(C)[C@@H](C)C(=O)N[C@@H](CC(N)=O)C(=O)N2CCC[C@H]2C(=O)N[C@@H](CNC(=O)Nc2ccccc2C(=N)Nc2ccccc2C#N)C(=O)N[C@@H](CC(C)C)C(=O)N2C[C@H](O)C[C@H]2C(=O)N[C@@H](Cc2c[nH]c3ccccc23)C(=O)N[C@@H](CCN)C(=O)N[C@@H](Cc2cn(CC(=O)O)c3ccccc23)C(=O)N1C [Example 1097] ({CH2CO}-Y[NMeA]NP[Dap]([CO-X49])L[Hyp]W[Dab][Trp(1-CH2COOH)][NMeNle][NMeNle]LCG-NH2; thioether N-14) | –
13.3 | CCCC[C@H]1C(=O)N(C)[C@@H](CCCC)C(=O)N[C@@H](CC(C)C)C(=O)N[C@H](C(=O)NCC(N)=O)CSCC(=O)N[C@@H](Cc2ccc(O)cc2)C(=O)N(C)[C@@H](C)C(=O)N[C@@H](CC(N)=O)C(=O)N2CCC[C@H]2C(=O)N[C@@H](CNC(=S)Nc2ccc3c(c2)Cc2ccccc2-3)C(=O)N[C@@H](CC(C)C)C(=O)N2C[C@H](O)C[C@H]2C(=O)N[C@@H](Cc2c[nH]c3ccccc23)C(=O)N[C@@H](CCNC(=S)Nc2ccc3c(c2)Cc2ccccc2-3)C(=O)N[C@@H](Cc2cn(CC(=O)O)c3ccccc23)C(=O)N1C [Example 2007] ({CH2CO}-Y[NMeA]NP[Dap](X1)L[Hyp]W[Dab](X1)[Trp(1-CH2COOH)][NMeNle][NMeNle]LCG-NH2; thioether N-14) | –
32 | CCCC[C@H]1C(=O)N(C)[C@@H](CCCC)C(=O)N[C@@H](CC(C)C)C(=O)N[C@H](C(=O)NCC(N)=O)CSCC(=O)N[C@@H](Cc2ccc(O)cc2)C(=O)N(C)[C@@H](C)C(=O)N[C@@H](CC(N)=O)C(=O)N2CCC[C@H]2C(=O)N[C@@H](CNC(=O)c2ccc(F)c(C(F)(F)F)c2)C(=O)N[C@@H](CC(C)C)C(=O)N2C[C@H](O)C[C@H]2C(=O)N[C@@H](Cc2c[nH]c3ccccc23)C(=O)N[C@@H](CCNC(=O)c2ccc(F)c(C(F)(F)F)c2)C(=O)N[C@@H](Cc2cn(CC(=O)OC)c3ccccc23)C(=O)N1C [Example 1007] ({CH2CO}-Y[NMeA]NP[Dap](Benzoyl(4-F,3-CF3))L[Hyp]W[Dab](Benzoyl(4-F,3-CF3))[Trp(1-CH2CO2Me)][NMeNle][NMeNle]LCG-NH2; thioether N-14) | –
